Measured values reported in patent US10150737B2, “Compounds for controlling arthropods” (priority 2013, dated 2018).

Tests used:
Tetranychus urticae = Tetranychus urticae - spray test, OP-resistant; format: in vivo; details: bean leaf discs, after 6 days
Procedure, shortened: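 Mortality (%) read on day 6 after spraying Phaseolus vulgaris leaf discs carrying all mite stages with formulations at the desired concentration. Formulation: active ingredient in acetone plus dimethylformamide, made up with emulsifier-containing water (1000 ppm alkylaryl polyglycol ether).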

Spodoptera frugiperda = Spodoptera frugiperda - spray test; format: in vivo; details: caterpillars on maize leaf discs, after 7 days
Procedure, shortened: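 Percent mortality of Spodoptera frugiperda caterpillars scored 7 days after placing them on dried maize leaf discs sprayed at the desired concentration. Spray formulation: compound dissolved in acetone/dimethylformamide, made up with water containing 1000 ppm emulsifier.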

Myzus persicae = Myzus persicae - spray test; format: in vivo; details: Chinese cabbage leaf discs, after 6 days
Procedure, shortened: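 Mortality of the green peach aphid, as % killed, was read 6 days after spraying infested Brassica pekinensis leaf discs. Compound formulated in acetone/dimethylformamide and made up with emulsifier-containing (1000 ppm) water.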

[1] = logP determination by HPLC on a reversed-phase column (C18); format: physicochemical; details: for logP^a): HPLC-MS method a); for log P: HPLC-MS; for logP: HPLC, C18 reversed phase, acetonitrile/water with formic acid, EEC Directive 79/831 Annex V.A8
Musca domestica = Musca domestica test; format: in vivo; details: application rate 100 ppm; adult houseflies; after 2 days
Procedure, shortened: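 First, 10 mg compound was taken up in 0.5 ml DMSO and then brought with water to the required concentration. This was applied with sugar solution to a sponge in vessels holding 10 adult flies; kill was assessed after 2 days.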

Rhipicephalus sanguineus = Rhipicephalus sanguineus - in vitro contact tests with adult brown dog ticks; format: in vivo; details: application rate 5 μg/cm2; after 48 h; ticks dead or moribund
Procedure, shortened: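 Efficacy, scored after 48 h, is the % of adult ticks dead or moribund, i.e. unable to climb away on a 45-50° C hotplate within 5 min. Tubes held 5-10 ticks in the dark at room temperature, on an acetone-applied coating of 5 μg/cm^2 (900 ppm solution).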

Ctenocephalides felis [2] = assay: Ctenocephalides felis - oral test; format: in vivo; details: application rate 100 ppm in citrated cattle blood; after 2 days
Procedure, shortened: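 Roughly 20 unfed adult C. felis imbibe compound-dosed citrated cattle blood (DMSO formulation) across parafilm from a cylinder above their gauze chamber; percentage mortality recorded at day 2.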

Amblyomma hebraeum = assay: Amblyomma hebaraeum test (tick nymphs, immersion); format: in vivo; details: application rate 100 ppm; tick nymphs immersed one minute; after 42 days
Procedure: Solvent: dimethyl sulphoxide
To produce an appropriate active ingredient formulation, 10 mg of active ingredient are mixed with 0.5 ml of dimethyl sulphoxide, and the concentrate is diluted with water to the desired concentration.
Tick nymphs (Amblyomma hebraeum) are placed into perforated plastic beakers and immersed in the desired concentration for one minute. The ticks are transferred on filter paper into a Petri dish and stored in a climate-controlled cabinet.
After 42 days, the kill in % is determined. 100% means that all of the ticks have been killed; 0% means that none of the ticks have been killed.

Lucilia cuprina = Lucilia cuprina test; format: in vivo; details: application rate 100 ppm; L1 larvae; after 2 days
Procedure, shortened: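 Mortality (%) of first-instar blowfly larvae, about 20 per vessel, recorded 2 days after exposure to compound-treated minced horsemeat. Compound dissolved in dimethyl sulphoxide, then water-diluted to the desired concentration.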

Boophilus microplus = Boophilus microplus - injection test; format: in vivo; details: application rate 20 μg/animal, injection into engorged adult female ticks, after 7 days
Procedure, shortened: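 Five engorged adult female cattle ticks each received a 1 μl abdominal injection of compound solution in dimethyl sulphoxide. Fertile egg laying was assessed at 7 days, with doubtful eggs incubated about 42 days until hatch. 0% efficacy means all eggs fertile.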

[3] = tested on: Boophilus microplus Parkhurst strain, SP-resistant; assay: Boophilus microplus - dip test; format: in vivo; details: application rate 100 ppm; dip of engorged adult female ticks; after 7 days
Procedure, shortened: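 Compound dissolved in DMSO, diluted with water, and used to fully wet groups of 8-10 engorged female cattle ticks (SP-resistant Parkhurst strain). Fertile egg laying assessed at 7 days, doubtful eggs held ~42 days until hatch; 0% means all eggs fertile.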

Ctenocephalides felis [4] = assay: Ctenocephalides felis - in vitro contact tests with adult cat fleas; format: in vivo; details: application rate 5 μg/cm2 (=500 g/ha); after 48 h; fleas dead or moribund
Procedure, shortened: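 Efficacy, as percentage of fleas dead or moribund, was scored at 48 h by knocking fleas to the tube base. Exposure was by contact with a dried acetone film of compound at 5 μg/cm^2 area dose; 5–10 adults per tube, room temperature, ambient humidity.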

Phaedon cochleariae = Phaedon cochleariae - spray test; format: in vivo; details: larvae on Chinese cabbage leaf discs, after 7 days
Procedure, shortened: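 Mortality of mustard beetle larvae was scored as % at day 7 on Brassica pekinensis leaf discs. Discs had been treated by spraying at the desired concentration, using an acetone/dimethylformamide solution diluted in water with 1000 ppm alkylaryl polyglycol ether, and dried before larvae were added.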

[5] = reversed-phase column (C18), Table I-T3

Row | SMILES | efficacy (Tetranychus urticae; application rate 100 g/ha) | efficacy (Spodoptera frugiperda; application rate 100 g/ha) | efficacy (Myzus persicae; application rate 100 g/ha) | logP^a) ([1]; reversed-phase column (C18)) | log P [1, 5] | efficacy (kill) (Musca domestica) | efficacy (Rhipicephalus sanguineus) | efficacy (kill) (Ctenocephalides felis [2]) | efficacy (kill) (Amblyomma hebraeum) | efficacy (kill) (Lucilia cuprina) | efficacy (laying of fertile eggs) (Boophilus microplus) | efficacy (laying of fertile eggs) [3] | efficacy (Ctenocephalides felis [4]) | efficacy (Phaedon cochleariae; application rate 100 g/ha) | efficacy (Tetranychus urticae; application rate 500 g/ha) | efficacy (Spodoptera frugiperda; application rate 500 g/ha) | efficacy (Myzus persicae; application rate 500 g/ha) | efficacy (Phaedon cochleariae; application rate 500 g/ha) | logP^a) [1] | logP^a) [1, 5] | other results
1 | O=C(NC1CC1)c1cc(-c2cnn(-c3c(Cl)cc(C(F)(C(F)(F)F)C(F)(F)F)cc3OC(F)(F)F)c2)ccc1Cl [I-T3-162] | 100% | 100% | 100% | 4.6 | 4.6 | 100% | 100% | 100% | 100% | 100% | 100% | 100% | 100% | 100% | – | – | – | – | – | – | –
2 | Cc1cc(C(F)(C(F)(F)F)C(F)(F)F)cc(C)c1-c1cc(-c2ccc(Cl)c(C(=O)NC3(C#N)CC3)c2)on1 [I-T22-2] | 90% | 100% | 100% | – | – | 100% | 100% | 100% | 100% | 100% | 100% | 100% | 100% | 100% | – | – | – | – | – | – | logP [1]: 4.6
3 | CCc1cc(C(F)(C(F)(F)F)C(F)(F)F)cc(C)c1-n1cc(-c2cnc(Cl)c(C(=O)NC3(C#N)CC3)c2)cn1 [I-T3-110] | – | – | – | 4.1 | 4.1 | 100% | 100% | 100% | 100% | 100% | 100% | 100% | 100% | – | 100% | 100% | 100% | 100% | – | – | –
4 | O=C(NC1CC1)c1cc(-c2cnn(-c3c(Cl)cc(C(F)(C(F)(F)F)C(F)(F)F)cc3Cl)c2)cnc1Cl [I-T3-42] | – | – | – | – | – | 100% | 100% | 100% | 100% | 100% | 100% | 100% | 100% | – | 100% | 100% | 90% | 100% | 3.8 | 3.8 | –
5 | N#CC1(NC(=O)c2cc(-c3cnn(-c4c(Cl)cc(C(F)(C(F)(F)F)C(F)(F)F)cc4Cl)c3)cnc2Cl)CC1 [I-T3-43] | – | – | – | – | – | 100% | 80% | 100% | 100% | 100% | 100% | 100% | 100% | – | 100% | 100% | 100% | 100% | 3.8 | 3.8 | –
6 | N#CC1(NC(=O)c2cc(-c3cnn(-c4c(Br)cc(C(F)(C(F)(F)F)C(F)(F)F)cc4C(F)(F)F)c3)ccc2Cl)CC1 [I-T3-155] | 100% | 100% | – | 4.4 | 4.4 | 100% | 100% | 100% | 100% | 100% | 100% | 100% | 100% | 100% | – | – | – | – | – | – | –
7 | CCc1cc(C(F)(C(F)(F)F)C(F)(F)F)cc(C)c1-n1cc(-c2ccc(Cl)c(C(=O)NC3CC3)c2)cn1 [I-T3-44] | – | – | – | – | – | – | 100% | 100% | 100% | 100% | 100% | 100% | 100% | – | 100% | 100% | 100% | 100% | 4.7 | 4.7 | –
8 | CCc1cc(C(F)(C(F)(F)F)C(F)(F)F)cc(Cl)c1-n1cc(-c2ccc(Cl)c(C(=O)NC3(C#N)CC3)c2)cn1 [I-T3-71] | 90% | 100% | – | – | – | 100% | 100% | 100% | 100% | 100% | 100% | 100% | 100% | 100% | – | – | – | – | 4.5 | 4.5 | –
9 | O=C(NC1CC1)c1cc(-c2cnn(-c3c(Br)cc(C(F)(C(F)(F)F)C(F)(F)F)cc3C(F)(F)F)c2)ccc1Cl [I-T3-148] | 90% | 100% | – | 4.5 | 4.5 | 100% | 100% | 100% | 100% | 100% | 100% | 100% | 100% | 100% | – | – | – | – | – | – | –
10 | Cc1cc(C(F)(C(F)(F)F)C(F)(F)F)cc(Cl)c1-n1cc(-c2ccc(Cl)c(C(=O)NC3CC3)c2)cn1 [I-T3-63] | 100% | 100% | – | – | – | 100% | 100% | 100% | 100% | 100% | 100% | 100% | 100% | 100% | – | – | – | – | 4.4 | 4.4 | –
11 | Cc1cc(C(F)(C(F)(F)F)C(F)(F)F)cc(C)c1-c1cnn(-c2cnc(Cl)c(C(=O)NC3CC3)c2)c1 [I-T4-3, 2-chloro-N-cyclopropyl-5-[4-[2,6-dimethyl-4-[1,2,2,2-tetrafluoro-1-(trifluoromethyl)ethyl]phenyl]pyrazol-1-yl]pyridine-3-carboxamide] | – | – | 90% | – | – | – | 100% | – | 100% | – | – | 100% | 100% | – | – | – | – | – | – | – | logP [1]: 4.4; pest or weed control at 0.02 mg (Boophilus microplus; Rhipicephalus microplus, 168 h, read-out: efficacy (laying of fertile eggs)): 100%
12 | N#CC1(NC(=O)c2cc(-c3cnn(-c4ccc(C(F)(C(F)(F)F)C(F)(F)F)cc4C(F)(F)F)c3)ccc2Cl)CC1 [I-T3-53] | 100% | 100% | 90% | – | – | 100% | 100% | 100% | 80% | 100% | 100% | 100% | – | 100% | – | – | – | – | 4.3 | 4.3 | –
